The target of assay [1] is T1, PTPN2 (HiBIT-PTPN2 in 293T.109 cells) (Homo sapiens, UniProt P17706).
T1 construct: expressed in transfected cells; host or cells: 293T.109 (293T WT from ATCC)
T1 sequence (P17706 1-415): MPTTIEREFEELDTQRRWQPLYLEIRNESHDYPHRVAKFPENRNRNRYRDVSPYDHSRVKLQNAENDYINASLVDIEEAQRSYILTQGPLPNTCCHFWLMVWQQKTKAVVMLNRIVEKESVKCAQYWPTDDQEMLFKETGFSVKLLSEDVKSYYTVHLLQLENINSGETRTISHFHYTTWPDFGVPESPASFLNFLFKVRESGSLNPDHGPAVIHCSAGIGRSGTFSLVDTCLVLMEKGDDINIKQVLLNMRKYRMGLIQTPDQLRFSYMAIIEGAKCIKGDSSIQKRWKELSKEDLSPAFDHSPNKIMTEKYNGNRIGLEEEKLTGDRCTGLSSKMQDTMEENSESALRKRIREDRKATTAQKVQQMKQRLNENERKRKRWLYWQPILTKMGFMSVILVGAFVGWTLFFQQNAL
Nature of the assay: HiBiT Degradation 293T.109 PTPN2 (Nano-Glo HiBiT Lytic Assay). To be noted: 24.0 hours. Format: cell-based. An outline of the steps: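 293T.109 cells with ectopic N-terminal HiBiT-tagged PTPN2 (5000/well) exposed to compounds for 24 h at 37 °C, 5% CO2; 11-point half-log titration from 10 μM top, duplicates. Remaining HiBiT-PTPN2 read as luminescence with Nano-Glo HiBiT lytic reagent, normalised to untreated cells (0%) and reagent-free wells.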

Assay [2] has as its target T2, PTPN2 (B16F10.4 cells) (Mus musculus, UniProt Q06180).
T2 construct: HiBiT; host or cells: B16F10.4
T2 sequence (Q06180 1-406): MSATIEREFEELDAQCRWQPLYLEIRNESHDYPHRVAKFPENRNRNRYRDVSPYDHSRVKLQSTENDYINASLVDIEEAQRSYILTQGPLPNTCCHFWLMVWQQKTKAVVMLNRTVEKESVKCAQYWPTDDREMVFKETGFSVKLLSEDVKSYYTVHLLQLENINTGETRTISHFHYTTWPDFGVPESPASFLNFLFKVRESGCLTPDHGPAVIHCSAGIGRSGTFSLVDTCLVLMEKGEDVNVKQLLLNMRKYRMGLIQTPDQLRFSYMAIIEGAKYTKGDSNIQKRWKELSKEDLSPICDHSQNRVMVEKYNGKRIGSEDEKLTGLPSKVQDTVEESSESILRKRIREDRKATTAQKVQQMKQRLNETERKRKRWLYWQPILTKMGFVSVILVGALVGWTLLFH
As to the kind of experiment: HiBiT Degradation B16F10.4 PTPN2. The assay is classed as cell-based. To be noted: 24.0 hours.

Among the data in US20250302815A1, “PROTEIN TYROSINE PHOSPHATASE TARGETING LIGANDS” (CALICO LIFE SCIENCES LLC, priority 2021, published 2025) are DC50 values, retold here.

Some results are limits rather than exact numbers.

As usually defined, the DC50 is the midpoint of the concentration-degradation curve. Read a high DC50 as a less potent degrader. Turning to `CC1Cc2cc(C3CCN(C(=O)Nc4cccc(CS(=O)(=O)N5CC[C@H](Nc6cccc(-c7sc(C(=O)O)c(OCC(=O)O)c7Cl)c6)CC5(C)C)c4)CC3)ccc2N1C1CCC(=O)NC1=O` (stereo partly drawn) [Example 95, 3-(carboxymethoxy)-4-chloro-5-[3-[[(4S)-1-[[3-[[4-[1-(2,6-dioxo-3-piperidyl)-2-methyl-indolin-5-yl]piperidine-1-carbonyl]amino]phenyl]methylsulfonyl]-2,2-dimethyl-4-piperidyl]amino]phenyl]thiophene-2-carboxylic acid], the DC50 in assay [1] and in assay [2] was 200 to 1000 nM throughout.

As to `CC(C)n1c(=O)n(C2CCC(=O)NC2=O)c2ccc(C3CCN(C(=O)Nc4cccc(CS(=O)(=O)N5CC[C@H](Nc6cccc(-c7sc(C(=O)O)c(OCC(=O)O)c7Cl)c6)CC5(C)C)c4)CC3)cc21` (single isomer, unassigned) [Example 87b], the DC50 in assay [1] and in assay [2] was 50 to 200 nM each time.

Turning to `Cn1c(=O)n(C2CCC(=O)NC2=O)c2ccc([C@@H]3CN(C(=O)Nc4cccc(CS(=O)(=O)N5CC[C@H](Nc6cccc(-c7sc(C(=O)O)c(OCC(=O)O)c7Cl)c6)CC5(C)C)c4)CC[C@H]3F)cc21` (stereo partly drawn) [Example 213, 3-(carboxymethoxy)-4-chloro-5-[3-[[(4S)-1-[[3-[[(3R,4R)-3-[1-(2,6-dioxo-3-piperidyl)-3-methyl-2-oxo-benzimidazol-5-yl]-4-fluoro-piperidine-1-carbonyl]amino]phenyl]methylsulfonyl]-2,2-dimethyl-4-piperidyl]amino]phenyl]thiophene-2-carboxylic acid], the DC50 in assay [1] was not below 1000 nM; in assay [2], 50 to 200 nM.

For `CC1(C)C[C@@H](Nc2cccc(-c3sc(C(=O)O)c(OCC(=O)O)c3Cl)c2)CCN1S(=O)(=O)Cc1cccc(NC(=O)NCCCc2cc3c4c(cccc4c2)N(C2CCC(=O)NC2=O)C3=O)c1` (stereo partly drawn) [Example 215, 3-(carboxymethoxy)-4-chloro-5-[3-[[(4S)-1-[[3-[3-[1-(2,6-dioxo-3-piperidyl)-2-oxo-benzo[cd]indol-4-yl]propylcarbamoylamino]phenyl]methylsulfonyl]-2,2-dimethyl-4-piperidyl]amino]phenyl]thiophene-2-carboxylic acid], the DC50 in assay [1] lay in the range of 50 to 200 nM; in assay [2], 200 to 1000 nM.

In the case of `Cn1c(=O)n([C@H]2CCC(=O)NC2=O)c2ccc([C@@H]3CCN(C(=O)Nc4cccc(CS(=O)(=O)N5CC[C@H](Nc6cccc(-c7sc(C(=O)O)c(OCC(=O)O)c7Cl)c6)CC5(C)C)c4)CC3(F)F)cc21` (single isomer, unassigned) [Example 169a], the DC50 in assay [1] and in assay [2] was less than 50 nM each time.

Turning to `Cc1cn(C2CCC(=O)NC2=O)c2ccc(C3CCN(C(=O)Nc4cccc(CS(=O)(=O)N5CC[C@H](Nc6cccc(-c7sc(C(=O)O)c(OCC(=O)O)c7Cl)c6)CC5(C)C)c4)CC3)cc12` (stereo partly drawn) [Example 211, 3-(carboxymethoxy)-4-chloro-5-[3-[[(4S)-1-[[3-[[4-[1-(2,6-dioxo-3-piperidyl)-3-methyl-indol-5-yl]piperidine-1-carbonyl]amino]phenyl]methylsulfonyl]-2,2-dimethyl-4-piperidyl]amino]phenyl]thiophene-2-carboxylic acid], the DC50 in assay [1] and in assay [2] was 200 to 1000 nM throughout.

With `CC1(C)C[C@H](Nc2cccc(-c3sc(C(=O)O)c(OCC(=O)O)c3Cl)c2)CCN1S(=O)(=O)Cc1cccc(NC(=O)N2CCC(c3ccc4c5c(cccc35)C(=O)N4C3CCC(=O)NC3=O)CC2)c1F` (stereo partly drawn) [Example 129, 3-(carboxymethoxy)-4-chloro-5-(3-(((4R)-1-((3-(4-(1-(2,6-dioxopiperidin-3-yl)-2-oxo-1,2-dihydrobenzo[cd]indol-6-yl)piperidine-1-carboxamido)-2-fluorobenzyl)sulfonyl)-2,2-dimethylpiperidin-4-yl)amino)phenyl)thiophene-2-carboxylic acid], the DC50 was 200 to 1000 nM in assay [1] and less than 50 nM in assay [2].

Consider `CC1(C)C[C@@H](Nc2cccc(-c3sc(C(=O)O)c(OCC(=O)O)c3Cl)c2)CCN1S(=O)(=O)Cc1cccc(NC(=O)N2CCC(C(=O)NCc3cccc4c3CN(C3CCC(=O)NC3=O)C4=O)CC2)c1` (stereo partly drawn) [Example 84, 3-(carboxymethoxy)-4-chloro-5-[3-[[(4S)-1-[[3-[[4-[[2-(2,6-dioxo-3-piperidyl)-1-oxo-isoindolin-4-yl]methylcarbamoyl]piperidine-1-carbonyl]amino]phenyl]methylsulfonyl]-2,2-dimethyl-4-piperidyl]amino]phenyl]thiophene-2-carboxylic acid], for which the figures for the DC50 in assay [1] and in assay [2] were 200 to 1000 nM and not below 1000 nM, respectively.

Take `O=C(O)COc1c(C(=O)O)sc(-c2cccc(NC3CCN(S(=O)(=O)Cc4cccc(NC(=O)CCOCCCc5cccc6c5C(=O)N(C5CCC(=O)NC5=O)C6=O)c4)CC3)c2)c1Cl` (centres unmarked) [Example 27, 3-(carboxymethoxy)-4-chloro-5-[3-[[1-[[3-[3-[3-[2-(2,6-dioxo-3-piperidyl)-1,3-dioxo-isoindolin-4-yl]propoxy]propanoylamino]phenyl]methylsulfonyl]-4-piperidyl]amino]phenyl]thiophene-2-carboxylic acid]: the DC50 was 200 to 1000 nM in assay [1] and not below 1000 nM in assay [2].

`Cn1nc(C2CCC(=O)NC2=O)c2ccc(CCC(=O)Nc3cccc(CS(=O)(=O)N4CCC(Nc5cccc(-c6sc(C(=O)O)c(OCC(=O)O)c6Cl)c5)CC4)c3)cc21` (centres unmarked) [Example 157, 3-(carboxymethoxy)-4-chloro-5-[3-[[1-[[3-[3-[3-(2,6-dioxo-3-piperidyl)-1-methyl-indazol-6-yl]propanoylamino]phenyl]methylsulfonyl]-4-piperidyl]amino]phenyl]thiophene-2-carboxylic acid]: the DC50 in assay [1] and in assay [2] was 200 to 1000 nM in each case.

Consider `Cn1c(=O)n(C2CCC(=O)NC2=O)c2ccc(C3CCN(C(=O)Nc4cccc(CS(=O)(=O)N5CC[C@@H](Nc6cccc(-c7sc(C(=O)O)c(OCC(=O)O)c7Cl)c6)CC5(C)C)c4F)CC3)cc21` (some centres unmarked) [Example 131], for which the DC50 in assay [1] was in the range of 200 to 1000 nM; in assay [2], 50 to 200 nM.

`CC1(C)C[C@@H](Nc2cccc(-c3sc(C(=O)O)c(OCC(=O)O)c3Cl)c2)CCN1S(=O)(=O)Cc1cccc(NC(=O)OC2CCN(C(=O)CNc3cccc4c3CN(C3CCC(=O)NC3=O)C4=O)CC2)c1` (some centres unmarked) [Example 85]: the DC50 was in the range of 50 to 200 nM in assay [1] and 200 to 1000 nM in assay [2].

In the case of `CC1(C)C[C@@H](Nc2cccc(-c3sc(C(=O)O)c(OCC(=O)O)c3Cl)c2)CCN1S(=O)(=O)Cc1cccc(NC(=O)CCN2CCC(Nc3cccc4c3CN(C3CCC(=O)NC3=O)C4=O)CC2)c1` (stereo partly drawn) [Example 46, 3-(carboxymethoxy)-4-chloro-5-(3-(((4S)-1-((3-(3-(4-((2-(2,6-dioxopiperidin-3-yl)-1-oxoisoindolin-4-yl)amino)piperidin-1-yl)propanamido)benzyl)sulfonyl)-2,2-dimethylpiperidin-4-yl)amino)phenyl)thiophene-2-carboxylic acid], the values for the DC50 in assay [1] and in assay [2] were less than 50 nM and 200 to 1000 nM, respectively.

In the case of `CC1(C)C[C@@H](Nc2cccc(-c3sc(C(=O)O)c(OCC(=O)O)c3Cl)c2)CCN1S(=O)(=O)Cc1cccc(NC(=O)C2CCN(c3ccc4c5c(cccc35)N(C3CCC(=O)NC3=O)C4=O)CC2)c1` (some centres unmarked) [Example 216], the 50% degradation concentration (DC50) in assay [1] is less than 50 nM; in assay [2], 50 to 200 nM.

For `C[C@@H]1CN(C(=O)Nc2cccc(CS(=O)(=O)N3CC[C@H](Nc4cccc(-c5sc(C(=O)O)c(OCC(=O)O)c5Cl)c4)CC3(C)C)c2)CCN1c1ccc2c(c1)n(C)c(=O)n2C1CCC(=O)NC1=O` (stereo partly drawn) [Example 209, 3-(carboxymethoxy)-4-chloro-5-[3-[[(4S)-1-[[3-[[(3R)-4-[1-(2,6-dioxo-3-piperidyl)-3-methyl-2-oxo-benzimidazol-5-yl]-3-methyl-piperazine-1-carbonyl]amino]phenyl]methylsulfonyl]-2,2-dimethyl-4-piperidyl]amino]phenyl]thiophene-2-carboxylic acid], the half-maximal degradation concentration (DC50) in assay [1] and in assay [2] was 50 to 200 nM throughout.

On to `O=C(O)COc1c(C(=O)O)sc(-c2cccc(NC3CCN(S(=O)(=O)Cc4cccc(NC(=O)CCOCCOCCOCCCc5ccc6c(c5)CN(C5CCC(=O)NC5=O)C6=O)c4)CC3)c2)c1Cl` (centres unmarked) [Example 19, 3-(carboxymethoxy)-4-chloro-5-(3-((1-((3-(3-(2-(2-(3-(2-(2,6-dioxopiperidin-3-yl)-1-oxoisoindolin-5-yl)propoxy)ethoxy)ethoxy)propanamido)benzyl)sulfonyl)piperidin-4-yl)amino)phenyl)thiophene-2-carboxylic acid], for which the DC50 in assay [1] and in assay [2] was 200 to 1000 nM in each case.
